Measured values reported in US4652560A, “A-deoxy-a-aza derivatives of clavulanic acid, a process for their preparation and their use” (Beecham Group p.l.c., priority 1979, dated 1987).

Tested on: E coli JT39
Assay: Antibacterial Activity, standard MIC test
Type: cell-based
Settings: Escherichia coli, compound alone
Source text: Using conventional methods the following results were obtained in a standard MIC test: […]

SMILES: O=C(O)CCCCCCCCCCNC/C=C1\O[C@@H]2CC(=O)N2[C@H]1C(=O)O [11 (b), 9-N-(10'-Carboxydecyl)aminodeoxyclavulanic acid]
- MIC: > 500 µg/mL
